Values quoted from earlier work as cited in US7375097B2, “Increasing ATP availability by inhibition of creatine kinase (CK) leakage resulting from high-intensity exercise” (Aplodan Formulations Ltd., priority 2006, dated 2008).
Read-outs that look alike come from different tables or passages of the source.

What was measured:
[1] = system: serum CK levels increased by isoprenaline; conditions: rats; CK increased by administration of isoprenaline
[2] = in vivo
hand-grip strength = conditions: unaffected in the placebo group
[3] = system: skeletal muscle performance; conditions: clinical trials
[4] = system: leakage of CK in acute myocardial infarction; conditions: human patients suffering from acute myocardial infarction
[5] = system: patients with inadequate coronary blood flow
[6] = alkaline and acidic solutions
[7] = oral administration, test animals, up to about, at 48 hours
[8] = in vitro
[9] = in vivo; remark: listed apart in the source
[10] = system: models of myocardial infarction

- absorption by the intestine [7]: about 60%
- dephosphorylation to creatine ([8]; blood and muscle): less so
SMILES: CN(CCOP(=O)(O)O)C(=N)N [2-(carbamimidoyl-methyl-amino)ethoxyphosphonic acid]
- serum CK levels [1]: reduce serum CK levels
- muscular performance (elderly subjects): improved muscular performance
- tolerability / side effects [2]: well tolerated and without side effects
- hand-grip strength (hand-grip strength): hand-grip strength was improved
- capacity to perform physical activity [3]: increase the capacity to perform physical activity
- muscular development [3]: improve muscular development
- leakage of CK and several other enzymes [4]: reduce the leakage of CK as well as several other enzymes
- cardiac parameters [5]: improve cardiac parameters
- stability in solution [6]: stable in both alkaline and acidic solutions
- dephosphorylation to creatine ([8]; kidney, intestine and liver): dephosphorylated to creatine to some degree
- cardioprotection [9]: afford cardioprotection
- protection against cellular necrosis [10]: protective against cellular necrosis
